Experiments:
A549 cells = test: Cell viability (XTT); type: cell-based, Human; conditions: concentration of 100 μM
Method: Human carcinoma cell lines (DU145, A549 and ACHN) were grown in RPMI 1640 medium containing 10% FBS and L-glutamine. Cell Viability Cell viability was determined by measurement of conversion of the tetrazolium salt XTT to form formazon dye. Carcinoma cells were seeded at a density of 4×10^3 cells per well in 96-well plates in the absence or presence of NP-1 peptide or peptidomimetic antagonists. After 44 h incubation, XTT labelling reagent mixture (Roche) was added to the cultures and they were incubated for a further 4 h. The formazon production was then measured at A490 nm with a reference wavelength at 595 nm.

neuropilin-1 (NP-1) = target: T1, neuropilin-1 (NP-1) (Homo sapiens, UniProt O14786); test: 125I-VEGF-A165 binding; conditions: assay not given; 125I-VEGF-A165 binding is the only concentration-response binding method described
T1 construct: expressed in transfected cells; host or cells: porcine aortic endothelial cells (PAE/NP-1), hygromycin B selection
Method: Porcine aortic endothelial cells expressing neuropilin-1 (PAE/NP-1) were cultured in Ham's F12 medium containing 10% fetal bovine serum (FBS) and 25 μg/ml hygromycin B. PAE cells expressing KDR (PAE/KDR) were grown in Ham's F12 medium containing 10% FBS and 250 μg/ml […] G418. Human carcinoma cell lines (DU145, A549 and ACHN) were grown in RPMI 1640 medium containing 10% FBS and L-glutamine.
Confluent cells in 24-well plates were washed twice with phosphate-buffered saline (PBS). At 4° C. various concentrations of peptides or peptidomimetics diluted in binding medium (Dulbecco's modified Eagle's medium, 25 mM HEPES pH 7.3 containing 0.1% BSA) were added, followed by addition of 0.1 nM of ^125I-VEGF-A165 (1200-1800 Ci/mmol, GE Healthcare). After 2 h of incubation at 4° C., the medium was aspirated and washed 4 times with cold PBS. The cells were lysed with 0.25 M NaOH, 0.5% SDS solution, and the bound radioactivity of the lysates was measured in a γ counter. Non-specific binding was determined in the presence of 100-fold excess unlabelled VEGF-A165.

T1 sequence (O14786 22-923): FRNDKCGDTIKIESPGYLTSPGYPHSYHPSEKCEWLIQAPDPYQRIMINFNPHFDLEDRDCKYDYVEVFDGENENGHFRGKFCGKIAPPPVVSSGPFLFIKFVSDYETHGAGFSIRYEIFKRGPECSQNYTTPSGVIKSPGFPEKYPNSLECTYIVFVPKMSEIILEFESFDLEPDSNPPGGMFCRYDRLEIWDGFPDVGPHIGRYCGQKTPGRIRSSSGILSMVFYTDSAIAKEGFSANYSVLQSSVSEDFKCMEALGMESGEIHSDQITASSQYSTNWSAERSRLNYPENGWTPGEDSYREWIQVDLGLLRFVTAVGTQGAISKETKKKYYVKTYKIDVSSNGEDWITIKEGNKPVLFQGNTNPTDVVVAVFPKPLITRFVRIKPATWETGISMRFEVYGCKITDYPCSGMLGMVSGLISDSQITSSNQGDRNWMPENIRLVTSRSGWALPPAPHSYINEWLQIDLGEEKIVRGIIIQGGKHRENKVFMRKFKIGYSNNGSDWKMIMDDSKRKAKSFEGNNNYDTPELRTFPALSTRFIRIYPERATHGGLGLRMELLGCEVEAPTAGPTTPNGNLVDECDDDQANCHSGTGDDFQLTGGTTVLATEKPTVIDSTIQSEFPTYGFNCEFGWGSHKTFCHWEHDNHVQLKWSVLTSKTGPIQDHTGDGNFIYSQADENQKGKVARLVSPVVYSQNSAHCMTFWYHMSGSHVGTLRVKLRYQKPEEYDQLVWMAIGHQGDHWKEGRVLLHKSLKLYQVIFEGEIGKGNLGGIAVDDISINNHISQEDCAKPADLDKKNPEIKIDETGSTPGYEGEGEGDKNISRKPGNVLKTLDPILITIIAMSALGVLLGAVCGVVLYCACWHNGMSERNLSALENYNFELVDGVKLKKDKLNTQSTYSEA

IC50 (neuropilin-1 (NP-1)): < 20 µM
SMILES: N=C(N)NCCC[C@H](NC(=O)c1sccc1NS(=O)(=O)c1cccc2nsnc12)C(=O)O [EG00229, (S)-2-{[3-(Benzo[1,2,5]thiadiazole-4-sulfonylamino)-thiophene-2-carbonyl]-amino}-5-guanidino-pentanoic acid]
viability of A549 cells (A549 cells): reduced the viability

Source: patent US8158789B2, “Arginine derivatives with NP-I antagonistic activity” (Ark Therapeutics Group Ltd., priority 2006, dated 2012)
